Test results published in patent publication US20220274979A1 (Bayer Pharma Aktiengesellschaft, priority 2018, published 2022).

Molecular target: T1, Epidermal Growth Factor Receptor (EGFR) (Homo sapiens, UniProt P00533)
T1 construct: purchased Sigma-Aldrich E3641
Assay: EGFR kinase assay (TR-FRET)
Type: biochemical
Details: 10 μM ATP; read-out: EGFR kinase inhibition IC50
Text: EGFR inhibitory activity of compounds of the present invention was quantified employing the TR-FRET based EGFR assay as described in the following paragraphs.
Epidermal Growth Factor Receptor (EGFR) affinity purified from human carcinoma A431 cells (Sigma-Aldrich, # E3641) was used as kinase. As substrate for the kinase reaction the biotinylated peptide biotin-Ahx-[…] (SEQ ID NO: 8, C-terminus in amid form) was used which can be purchased e.g. form the company Biosyntan GmbH (Berlin-Buch, Germany).
For the assay 50 nL of a 100 fold concentrated solution of the test compound in DMSO was pipetted into a black low volume 384 well microtiter plate (Greiner Bio-One, Frickenhausen, Germany), 2 μL of a solution of EGFR in aqueous assay buffer [50 mM Hepes/HCl pH 7.0, 1 mM MgCl2, 5 mM MnCl2, 0.5 mM activated sodium ortho-vanadate, 0.005% (v/v) Tween-20]were added and the mixture was incubated for […] at 22° C. to allow pre-binding of the test compounds to the enzyme before the start of the kinase reaction. Then the kinase reaction was started by the addition of 3 μL of a solution of adenosine-tri-phosphate (ATP, 16.7 μM=>final conc. in the 5 μL assay volume is 10 μM) and substrate (1.67 μM =>final conc. in the 5 μL assay volume is 1μM) in assay buffer and the resulting mixture was incubated for a reaction time of […] at 22° C. The concentration of EGFR was adjusted depending of the activity of the enzyme lot and was chosen appropriate to have the assay in the linear range, typical concentration were about 3 U/ml. The reaction was stopped by the addition of 5 μl of a solution of HTRF detection reagents (0.1 μM streptavidine-XL665 [Cis Biointernational]and 1 nM PT66-Tb-Cryptate, an terbium-cryptate labelled anti-phospho-tyrosine antibody from Cis Biointernational [instead of the PT66-Tb-cryptate PT66-Eu-Chelate from Perkin Elmer can also be used]) in an aqueous EDTA-solution (80 mM EDTA, 0.2% (w/v) bovine serum albumin in 50 mM HEPES pH 7.5).
The resulting mixture was incubated 1 h at 22° C. to allow the binding of the biotinylated phosphorylated peptide to the streptavidine-XL665 and the PT66-Eu-Chelate. Subsequently the amount of phosphorylated substrate was evaluated by measurement of the resonance energy transfer from the PT66-Tb-Cryptate to the streptavidine-XL665. Therefore, the fluorescence emissions at 620 nm and 665 nm after excitation at 337 nm were measured in a HTRF reader, e.g. a Pherastar (BMG Labtechnologies, Offenburg, Germany) or a Viewlux (Perkin-Elmer). The ratio of the emissions at 665 nm and at […] was taken as the measure for the amount of phosphorylated substrate.

T1 sequence (P00533 25-1210): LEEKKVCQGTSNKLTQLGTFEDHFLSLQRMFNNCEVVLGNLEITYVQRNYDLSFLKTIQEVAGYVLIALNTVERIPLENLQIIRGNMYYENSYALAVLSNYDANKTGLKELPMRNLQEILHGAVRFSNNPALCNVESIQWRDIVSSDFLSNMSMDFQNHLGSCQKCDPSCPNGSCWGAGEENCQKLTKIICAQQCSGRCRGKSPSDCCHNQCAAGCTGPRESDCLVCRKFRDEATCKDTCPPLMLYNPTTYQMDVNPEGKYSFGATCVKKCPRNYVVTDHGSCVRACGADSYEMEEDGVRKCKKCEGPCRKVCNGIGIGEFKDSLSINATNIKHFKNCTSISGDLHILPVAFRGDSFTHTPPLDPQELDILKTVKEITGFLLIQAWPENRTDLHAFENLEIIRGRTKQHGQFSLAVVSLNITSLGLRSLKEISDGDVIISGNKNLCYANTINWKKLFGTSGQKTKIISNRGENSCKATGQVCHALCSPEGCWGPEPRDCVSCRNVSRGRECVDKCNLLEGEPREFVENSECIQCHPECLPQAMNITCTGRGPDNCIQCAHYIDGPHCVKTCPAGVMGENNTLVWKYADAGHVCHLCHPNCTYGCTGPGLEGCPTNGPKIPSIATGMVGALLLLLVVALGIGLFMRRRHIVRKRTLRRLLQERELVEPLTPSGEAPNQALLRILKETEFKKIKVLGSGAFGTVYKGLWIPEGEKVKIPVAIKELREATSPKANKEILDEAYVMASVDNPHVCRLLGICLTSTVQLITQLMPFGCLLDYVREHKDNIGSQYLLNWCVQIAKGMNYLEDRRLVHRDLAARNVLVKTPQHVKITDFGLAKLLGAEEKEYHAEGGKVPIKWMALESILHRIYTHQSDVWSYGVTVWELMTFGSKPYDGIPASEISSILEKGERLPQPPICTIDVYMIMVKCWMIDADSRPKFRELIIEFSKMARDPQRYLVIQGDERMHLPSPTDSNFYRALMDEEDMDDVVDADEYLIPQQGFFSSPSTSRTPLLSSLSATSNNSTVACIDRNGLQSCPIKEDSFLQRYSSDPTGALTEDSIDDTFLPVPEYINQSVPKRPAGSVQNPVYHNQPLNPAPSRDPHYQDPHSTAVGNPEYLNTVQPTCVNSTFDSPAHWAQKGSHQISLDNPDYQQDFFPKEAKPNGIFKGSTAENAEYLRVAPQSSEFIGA

Structure (SMILES) | IC50
CC(=O)NC1CCN(c2cc3c(N[C@H](C)c4cccc(Br)c4)nc(C)nc3cn2)C1 (mixture of isomers) [Example 42, N-[1-(4-{[(1R)-1-(3-bromophenyl)ethyl]amino}-2-methylpyrido[3,4-d]pyrimidin-6-yl)pyrrolidin-3-yl]acetamide] | > 20 µM
Cc1nc(NC(C)c2ccc(-c3ccccc3CN(C)C)s2)c2cc(C3CCN(C)C3=O)ncc2n1 (mixture of isomers) [Example 69, 3-(4-{[1-(5-{2-[(dimethylamino)methyl]phenyl}thiophen-2-yl)ethyl]amino}-2-methylpyrido[3,4-d]pyrimidin-6-yl)-1-methylpyrrolidin-2-one] | > 20 µM
Cc1nc(NC(C)c2ccc(-c3ccccc3CN(C)C)s2)c2cc(C3(O)CCN(C)C3=O)ncc2n1 (mixture of isomers) [Example 85, 3-(4-{[1-(5-{2-[(dimethylamino)methyl]phenyl}thiophen-2-yl)ethyl]amino}-2-methylpyrido[3,4-d]pyrimidin-6-yl)-3-hydroxy-1-methylpyrrolidin-2-one] | > 20 µM
CCOc1cc2c(NC(C)c3cccc4sccc34)nc(C)nc2cn1 (stereo not shown) [Example 3, N-[1-(1-benzothiophen-4-yl)ethyl]-6-ethoxy-2-methylpyrido[3,4-d]pyrimidin-4-amine] | > 20 µM
COc1cc2c(NC(C)c3cccc4sccc34)nc(C)nc2cn1 (stereo not shown) [Example 4, N-[1-(1-benzothiophen-4-yl)ethyl]-6-methoxy-2-methylpyrido[3,4-d]pyrimidin-4-amine] | > 20 µM
CCOc1cc2c(N[C@H](C)c3cccc(Br)c3)nc(C)nc2cn1 [Example 5, N-[(1R)-1-(3-bromophenyl)ethyl]-6-ethoxy-2-methylpyrido[3,4-d]pyrimidin-4-amine] | > 20 µM
CCOc1cc2c(N[C@H](C)c3cccc(Cl)c3)nc(C)nc2cn1 [Example 6] | > 20 µM
CCOc1cc2c(N[C@H](C)c3cccc(S(C)(=O)=O)c3)nc(C)nc2cn1 [Example 7, 6-ethoxy-2-methyl-N-{(1R)-1-[3-(methylsulfonyl)phenyl]ethyl}pyrido[3,4-d]pyrimidin-4-amine] | > 20 µM
COc1cc2c(N[C@H](C)c3ccc(F)c(Cl)c3)nc(C)nc2cn1 [Example 8] | > 20 µM
Cc1nc(N[C@H](C)c2ccc(F)cc2)c2cc(F)ncc2n1 [Example 9] | > 20 µM
Cc1nc(N[C@H](C)c2ccc(F)cc2)c2cc(OCC3CCOCC3)ncc2n1 [Example 11, N-[1R)-1-(4-fluorophenypethyl]-2-methyl-6-(tetrahydro-2H-pyran-4-ylmethoxy)-pyrido[3,4-d]pyrimidin-4-amine] | > 20 µM
COc1cc2c(N[C@H](C)c3ccc(F)c(C4CC4)c3)nc(C)nc2cn1 [Example 12] | > 20 µM
CCOc1cc2c(N[C@H](C)c3ccc(Br)cc3)nc(C)nc2cn1 [Example 13, N-[(1R)-1-(4-bromophenyl)ethyl]-6-ethoxy-2-methylpyrido[3,4-d]pyrimidin-4-amine] | > 20 µM
COc1cc2c(NC(C)c3cccc4c3cnn4C)nc(C)nc2cn1 (stereo not shown) [Example 14, 6-methoxy-2-methyl-N-[1-(1-methyl-1H-indazol-4-yl)ethyl]pyrido[3,4-d]pyrimidin-4-amine] | > 20 µM
Cc1nc(N[C@H](C)c2ccc(F)cc2)c2cc(OC(C)C)ncc2n1 [Example 15] | > 20 µM
COc1cc2c(NC(C)c3cccc4nn(C)cc34)nc(C)nc2cn1 (stereo not shown) [Example 17, 6-methoxy-2-methyl-N-[1-(2-methyl-2H-indazol-4-yl)ethyl]pyrido[3,4-d]pyrimidin-4-amine] | > 20 µM
CCOc1cc2c(N[C@H](C)c3ccc(C#N)cc3)nc(C)nc2cn1 [Example 18, 4-{(1R)-1-[(6-ethoxy-2-methylpyrido[3,4-d]pyrimidin-4-yl)amino]ethyl}benzonitrile] | > 20 µM
Cc1nc(N[C@H](C)c2cccc(Br)c2)c2nc(OCc3ccccc3)ncc2n1 [Example 20, 6-(benzyloxy)-N-[(1R)-1-(3-bromophenyl)ethyl]-2-methylpyrimido[5,4-d]pyrimidin-4-amine] | > 20 µM
Cc1nc(N[C@H](C)c2cccc(Br)c2)c2nc(N(C)C)ncc2n1 [Example 21] | > 20 µM

Structure (SMILES) | IC50
Cc1nc(N[C@H](C)c2cccc(Br)c2)c2nc(N3CCOCC3)ncc2n1 [Example 22, N-[(1R)-1-(3-bromophenyl)ethyl]-2-methyl-6-(morpholin-4-yl)pyrimido[5,4-d]pyrimidin-4-amine] | > 20 µM
CCOc1ncc2nc(C)nc(N[C@H](C)c3cccc(Br)c3)c2n1 [Example 23, N-[(1R)-1-(3-bromophenyl)ethyl]-6-ethoxy-2-methylpyrimido[5,4-d]pyrimidin-4-amine] | > 20 µM
COc1ncc2nc(C)nc(N[C@H](C)c3cccc(Br)c3)c2n1 [Example 24, N-[(1R)-1-(3-bromophenyl)ethyl]-6-methoxy-2-methylpyrimido[5,4-d]pyrimidin-4-amine] | > 20 µM
Cc1nc(N[C@H](C)c2cccc(Br)c2)c2nc(Oc3ccccc3)ncc2n1 [Example 25, N-[(1R)-1-(3-bromophenyl)ethyl]-2-methyl-6-phenoxypyrimido[5,4-d]pyrimidin-4-amine] | > 20 µM
COCCOc1ncc2nc(C)nc(N[C@H](C)c3cccc(Br)c3)c2n1 [Example 26, N-[(1R)-1-(3-bromophenyl)ethyl]-6-(2-methoxyethoxy)-2-methylpyrimido[5,4-d]pyrimidin-4-amine] | > 20 µM
Cc1nc(N[C@H](C)c2cccc(Br)c2)c2nc(N3CCOCC3)ccc2n1 [Example 27, N-[(1R)-1-(3-bromophenyl)ethyl]-2-methyl-6-(morpholin-4-yl)pyrido[3,2-d]pyrimidin-4-amine] | > 20 µM
COc1ccc2nc(C)nc(N[C@H](C)c3cccc(Br)c3)c2n1 [Example 28, N-[(1R)-1-(3-bromophenyl)ethyl]-6-methoxy-2-methylpyrido[3,2-d]pyrimidin-4-amine] | > 20 µM
CCOc1ccc2nc(C)nc(N[C@H](C)c3cccc(Br)c3)c2n1 [Example 29, N-[(1R)-1-(3-bromophenyl)ethyl]-6-ethoxy-2-methylpyrido[3,2-d]pyrimidin-4-amine] | > 20 µM
COCCOc1ccc2nc(C)nc(N[C@H](C)c3cccc(Br)c3)c2n1 [Example 30, N-[(1R)-1-(3-bromophenyl)ethyl]-6-(2-methoxyethoxy)-2-methylpyrido[3,2-d]pyrimidin-4-amine] | > 20 µM
Cc1nc(N[C@H](C)c2cccc(Br)c2)c2nc(N(C)C)ccc2n1 [Example 31] | > 20 µM
Cc1nc(N[C@H](C)c2cccc(Br)c2)c2nc(Oc3ccccc3)ccc2n1 [Example 32, N-[(1R)-1-(3-bromophenyl)ethyl]-2-methyl-6-phenoxypyrido[3,2-d]pyrimidin-4-amine] | > 20 µM
Cc1nc(N[C@H](C)c2cccc(Br)c2)c2nc(OCc3ccccc3)ccc2n1 [Example 33, 6-(benzyloxy)-N-[(1R)-1-(3-bromophenyl)ethyl]-2-methylpyrido[3,2-d]pyrimidin-4-amine] | > 20 µM
Cc1nc(N[C@H](C)c2cccc(Br)c2)c2cc(F)ncc2n1 [Example 34, N-[(1R)-1-(3-bromophenyl)ethyl]-6-fluoro-2-methylpyrido[3,4-d]pyrimidin-4-amine] | > 20 µM
Cc1nc(NC(C)c2ccc(Br)s2)c2cc(F)ncc2n1 (stereo not shown) [Example 35] | > 20 µM
CNCc1ccccc1-c1ccc(C(C)Nc2nc(C)nc3cnc(F)cc23)s1 (stereo not shown) [Example 36, 6-fluoro-2-methyl-N-[1-(5-{2-[(methylamino)methyl]phenyl}thiophen-2-yl)ethyl]pyrido[3,4-d]pyrimidin-4-amine] | > 20 µM
CNCc1ccccc1-c1ccc(C(C)Nc2nc(C)nc3cnc(Oc4ccc(N5CCCC5=O)cc4)cc23)s1 (stereo not shown) [Example 38, 1-{4-[(2-methyl-4-{[1-(5-{2-[(methylamino)methyl]phenyl}thiophen-2-yl)ethyl]amino}pyrido[3,4-d]pyrimidin-6-yl)oxy]phenyl}pyrrolidin-2-one] | > 20 µM
Cc1nc(N[C@H](C)c2cccc(Br)c2)c2cc(NCCN3CCOCC3)ncc2n1 [Example 39] | > 20 µM
Cc1nc(N[C@H](C)c2cccc(Br)c2)c2cc(Oc3cccc(O)c3)ncc2n1 [Example 40, 3-[(4-{[(1R)-1-(3-bromophenyl)ethyl]amino}-2-methylpyrido[3,4-d]pyrimidin-6-yl)oxy]phenol] | > 20 µM
